The values below are quoted from earlier work in patent US6753016B2, “Preservation of wood products” (Rohm and Haas Company, priority 2001, dated 2004).

Structures are written as SMILES.

For this data set the following is noted: aqueous treatment of wood surfaces; compared to conventional chromium(VI) treatment.

For `[Cl][Fe]([Cl])[Cl]` [ferric chloride], the “protective effect on treated wood in weathering” value is “does not have a protective effect”.
